# Experimental data as given in US3978035A, “13-Norleucine-14-desamido motilin, a method for preparing it and an agent containing it” (Max-Planck-Gesellschaft zur Forderung der Wissenschaften …, priority 1973, dated 1976).
# Where a SMILES comes first, the peptide text is derived from it. [ ]: non-standard residue; d: D form. Nle = CCCC[C@H](N)C(=O)O
# Assay: biological activity in comparison with natural motilin
# Conditions: after purification on ion exchangers; relative to naturally occurring motilin (method reference: J. C. Brown et al.)
row,Structure (SMILES),biological activity in comparison with natural motilin
1,CCCC[C@H](NC(=O)[C@H](CCCNC(=N)N)NC(=O)[C@H](CCC(N)=O)NC(=O)[C@H](CC(C)C)NC(=O)[C@H](CCC(=O)O)NC(=O)CNC(=O)[C@H](Cc1ccc(O)cc1)NC(=O)[C@@H](NC(=O)[C@H](Cc1ccccc1)NC(=O)[C@@H](NC(=O)[C@@H]1CCCN1C(=O)[C@@H](NC(=O)[C@@H](N)Cc1ccccc1)C(C)C)[C@@H](C)CC)[C@@H](C)O)C(=O)N[C@@H](CCC(=O)O)C(=O)N[C@@H](CCC(=O)O)C(=O)N[C@@H](CCCCN)C(=O)N[C@@H](CCC(=O)O)C(=O)N[C@@H](CCCNC(=N)N)C(=O)N[C@@H](CC(N)=O)C(=O)N[C@@H](CCCCN)C(=O)NCC(=O)N[C@@H](CCC(N)=O)C(=O)O [13-norleucine-14-desamido-motilin] (H-FVPIFTYGELQR[Nle]EEKERNKGQ-OH),above 90%
2,CCCC[C@H](NC(=O)[C@H](CCCNC(=N)N)NC(=O)[C@H](CCC(N)=O)NC(=O)[C@H](CC(C)C)NC(=O)[C@H](CCC(=O)O)NC(=O)CNC(=O)[C@H](Cc1ccc(O)cc1)NC(=O)[C@@H](NC(=O)[C@H](Cc1ccccc1)NC(=O)[C@@H](NC(=O)[C@@H]1CCCN1C(=O)[C@@H](NC(=O)[C@@H](N)Cc1ccccc1)C(C)C)[C@@H](C)CC)[C@@H](C)O)C(=O)N[C@@H](CCC(=O)O)C(=O)N[C@@H](CCC(=O)O)C(=O)N[C@@H](CCCCN)C(=O)N[C@@H](CCC(=O)O)C(=O)N[C@@H](CCCNC(=N)N)C(=O)N[C@@H](CC(N)=O)C(=O)N[C@@H](CCCCN)C(=O)NCC(=O)N[C@@H](CCC(N)=O)C(=O)O [C1 -fraction] (H-FVPIFTYGELQR[Nle]EEKERNKGQ-OH),over 90%
